Experimental findings from US6632793B1, “Immunological activity for a peptide of the limulus anti-LPS factor” (Centro de Ingenieria Genetica y Biotecnologia, priority 1997, dated 2003) are described below.

Where a SMILES comes first, the peptide text is derived from it.

Series [1] relates to cytokine mRNA in human PBMCs. The series is described as follows: Cytokine gene expression in human PBMCs by Ribonuclease Protection Assay (hck-1 probe set). The series is classed as cell-based. The following applies: 5 μM for 18 hours; FIG. 8. On the procedure:
The Ribonuclease Protection Assay (RPA) is a highly sensitive and specific method for the detection, quantification and characterization of RNA molecules (Gilman^32, M. In Current Protocols in Molecular Biology. J. Wiley and Sons, New York, p. 4.7.1-7.7.8. 1988 and Dent^33, A. L., Shaffer, A. L., Yu […]., 1997. Cytokine expression and germinal center formation by Bcl-2. […] Samples of total RNA from stimulated and nonstimulated human PBMCs were analyzed for distinct mRNA species by PharMingen's RiboQuantTM. Multi-Probe Ribonuclease Protection Assay System with the hck-1 probe template set (Cat. No. 45031P) which including mRNA species analyses for a different cytokine eg. (IL-5, IL-4, IL-10, IL-15, IL-9, IL-2, IL-13, IFN-γ). […] The identity and quantity of each mRNA species in the original RNA sample can then be determined based on the signal intensities given by the appropriately sized of protected probe fragment bands. Unprotected probe set and a probe for housekeeping gene transcripts are incorporating in order to identify and quantify the RNA molecules in the original samples. […] FIG 8: Samples of total RNA from stimulated human PBMCs with 5 μM of peptide for 18 hours were analyzed for distinct mRNA species by using […] […]

Series [2] concerns TNFα from human mononuclear cells. The series is described as follows: TNF-α synthesis by human mononuclear cells (ELISA of supernatant). It is filed as cell-based. Particulars: for TNF - α: 18 h, mean of three donors. On the procedure: Venous blood was obtained from healthy volunteers and Ficoll-Hypaque centrifugation, fractionated mononuclear cells. The mononuclear cells were washed and resuspended in endotoxic-free RPMI 1640 medium supplemented with 10% fetal calf serum. 30×10^6 cells were aliquoted into plates p-60 (Nunc, Denmark). The cells were incubated with 14 or 28 μg/ml LALF at 37° C. for 18 hours in 5% CO2 and then centrifuged at 3000 rpm during 5 min. The synthesis of TNFα in the supernatant was determined by specific enzyme-linked immunoadsorbent assay (ELISA), kindly provided by Dr. W. Buurman (University Hospital Maastrich, The Netherlands).

Series [3] can be described thus: Cell viability of peritoneal macrophages (MTT reduction). It is filed as cell-based, Balb/c mice. The following applies: Balb/c, mouse, primary thioglycollate-elicited peritoneal macrophages, 5 μM pre-incubation 18 h, then LPS, read-out: Viability of the cells. On the procedure:
Peritoneal elicited cells were obtained from Balb/c mice (CENPALAB, Havana, Cuba). Primary mouse macrophages was collected from the peritoneal cavity 4 days after intraperitoneal injection with 1 ml of 4% Brewer's thioglicollate broth. Cell were maintained in RPMI 1640 supplemented with 10% heat-inactivated fetal bovine serum, 2 mM L-glutamine, 200 units/ml penicillin, and 200 μg/ml streptomycin at 37° C. in 5% CO2/[…].
Assay for Secretion of NO2-(Jin, F^29, Nathan, C, Radzioch, 0, and Ding, A. Cell, 1997, 88: 417-426). Cells were plated in 96-well plates at 2×10^6 cells /ml in 200 μl of medium and incubated at 37° C. for 2 h, then non-adherent cells were removed by repeated washing with PBS. Macrophage were pre-incubated with 5 μM of LALF peptide during 18 h, afterward were washed with RPMI medium in order to eliminated the peptide. Then the macrophages were treated 72 hr with LPS of E. coli 0111:B4, Sigma (1 μg/ml). Cell viability was assessed by mitochondrial-dependent reduction of MTT to formazan (Szabo^30, c, Mitchell, J A, Gross, S S, Thiemermann, C, and Vane, JR. J. Pharm. Exp. Therap., 1992, 265: 674-80). […] Absorbance at 540 nm was recorded in a microplate reader (SUMA) with sodium nitrite as standards (Green^28, L C, Wagner, D A, Glogowski, J, et al. Anal Biochem 1982; 126: 131-8). […]
In general terms: Formazan colour is commonly taken as a measure of viable cells.

Series [4] in a line: In vivo toxicity after intravenous injection in mice (behavior, survival). Also on record: species or system mice BalB/c. On the procedure:
This approach was developed in mice BalB/c between 6-8 old. The mice were injected intravenously with 50 μg of peptide in 0.1 ml [2.5 mg/kg of body weight] or saline solution as a control. The behavior of animals was observed each 4 hours during 24 h. Survival was followed for one week. Blood was collected for TNF-α quantification from the retroorbital sinus at the time 0 h. 6 h, 24 h and 48 h in the control group and peptide treated-mice. The concentration of TNF-α in mouse serum was determined using a specific ELISA kindly provided by Dr. W. Buurman (University Hospital Maastrich, The Netherlands).

The subject of series [5] is bovine enterovirus on cell line MDBK. The series can be described thus: Antiviral effect: inhibition of the cytopathic effect of bovine enterovirus on cell line MDBK. The series is classed as cell-based. Particulars: 10 μM, 20 μM and 40 μM; FIG. 5. On the procedure:
Determination of the antiviral activity was estimate by means of the inhibition of the cytopathic effect produced by a virus on cell line MDBK, essentially as is described in the example 1. The cells used in this approach were MDBK a kidney normal bovine cells line [ATCC No. 6071], which are infected with […] of bovine enterovirus. Increasing quantities of LALF peptide were used in order to induced protection in the-cells: 10 μM, 20 μM and 40 μM. In this case serial dilution's of human α-IFN 70 000 IU/ml (MRI, Freeze-dried Reference Human Recombinant Alpha Interferon) was used as standard in order to define unit of antiviral activity. One unit of antiviral activity is defining as the quantity of IFN able to produce a 50% inhibition of the viral replication.
The cells were treated with increasing quantities of peptide during 18 hours. Afterwards, the cells were challenged with a bovine enterovirus. Antiviral activity is referred as U/ml α-IFN.

With `CC[C@H](C)[C@H](NC(=O)[C@H](CCCNC(=N)N)NC(=O)[C@H](Cc1ccc(O)cc1)NC(=O)[C@H](Cc1c[nH]cn1)NC(=O)[C@@H](N)CS)C(=O)N[C@@H](CCCCN)C(=O)N1CCC[C@H]1C(=O)N[C@H](C(=O)N[C@@H](Cc1ccccc1)C(=O)N[C@@H](CCCNC(=N)N)C(=O)N[C@@H](CCCNC(=N)N)C(=O)N[C@@H](CC(C)C)C(=O)N[C@@H](CCCCN)C(=O)N[C@@H](Cc1c[nH]c2ccccc12)C(=O)N[C@@H](CCCCN)C(=O)N[C@@H](Cc1ccc(O)cc1)C(=O)N[C@@H](CCCCN)C(=O)NCC(=O)N[C@@H](CCCCN)C(=O)N[C@@H](Cc1ccccc1)C(=O)N[C@@H](Cc1c[nH]c2ccccc12)C(=O)N[C@@H](CS)C(=O)O)[C@@H](C)O` [LALF] (H-CHYRIKPTFRRLKWKYKGKFWC-OH), the “Cytokine gene expression in human PBMCs (in words)” value in series [1] was “able to preferentially induce IFN-γ, IL-2 and IL-13 gene expression”. In addition, the “TNF - α” value in series [2] (14 μg/ml) stood at 0.84 ng/mL; in series [2] (28 μg/ml), 0.80 ng/mL. Further, the “TNF-α levels versus control buffer treated cells (in words)” value in series [2] (14-28 μg/ml alone) is on record as “did not induce increased levels of TNF-α over the control buffer treated cells”. Also, the viability at 18 h, 5 µM in series [3] is at least 98%. Further, the “Toxicity in vivo (in words)” value in series [4] (50 μg [2.5 mg/kg] intravenously) is “not toxic in vivo”. Besides, the “Survival after intravenous injection (in words)” value in series [4] (50 μg in 0.1 ml [2.5 mg/kg] intravenously, followed one week) was “All mice [10 animals/group] survivor beyond of one week”. The “Protection of cell line MDBK against bovine enterovirus (in words)” value in series [5] was “able to induce protection in the cell line MDBK in a doses dependent manner”.

The term viability denotes a per cent measure of how many cells are alive, often set against a control.
